In US11992493B1, “Use of compound or pharmaceutical derivative thereof in inhibiting CaMK2G protein activity” (priority 2022, dated 2024):

Legend:
IMQ-induced mice = experiment: IMQ-induced psoriatic mouse model: PASI score, erythema, scaling, skin thickness, skin phenotype; type: in vivo; details: smeared on skin, Day−2 to Day3
Protocol: (§1) DMSO is used to dissolve T2533 powder, the T2533 powder is weighed according to different dosage, and then diluted with β-cyclodextrin, the final concentration of DMSO is not more than 5%. The dose gradient of T2533 is 0 mg/kg, 2.5 mg/kg, 5 mg/kg, and 10 mg/kg. Each mouse is calculated as 20 grams (g), and each mouse needs to be administered 0 mg, 0.05 mg, 0.1 mg, and 0.2 mg per day.
(§2) Seven-week-old C57/BL6 mice are bred and modeled in SPF-level environment. The experimental groups are as follows: (1) applying the skin with imiquimod (IMQ) and 0 mg/kg T2533; (2) applying the skin with IMQ and 2.5 mg/kg T2533; (3) applying the skin with IMQ and 5 mg/kg T2533; (4) applying the skin with IMQ and 10 mg/kg T2533; (5) applying the skin with Vaseline® and 0 mg/kg T2533; (6) applying the skin with Vaseline® and 2.5 mg/kg T2533; (7) applying the skin with Vaseline® and 5 mg/kg T2533; and (8) applying the skin with Vaseline® and 10 mg/kg T2533.
(§3) In each group of 6 mice, the hair on the back of the mice is shaved to make the exposed skin reach 4 square centimeters. The start date of the experiment is set as Day−2, and the end date is set as Day4. From Day−2 to Day3, 200 μL of liquid drug is taken in the morning and evening every day and evenly smeared on the skin of mice until it is absorbed. From Day 0 to Day 3, 62.5 mg IMQ is applied to each mouse at noon of every day. The skin of mice is scored every day, the mice are euthanized on Day 4, and the skin tissues are taken for a series of detection.
The PASI score results and the corresponding score results of erythema, scaling, and skin thickness of the above IMQ modelled mice are shown in FIG. 9, FIG. 10, FIG. 11, and FIG. 12, respectively. The skin phenotypes and skin pathological phenotypes are shown in FIG. 13 and FIG. 14, respectively.

[1] = biological target: T1, human-derived CaMK2γ protein (Homo sapiens, UniProt Q13555); experiment: SPR (Biacore, CM5 chip amine-coupling) affinity to human-derived CaMK2γ protein; details: human-derived full-length CaMK2γ protein, read-out: binding constant
T1 construct: a pET28A vector is firstly used to express and purify the human-derived full-length CaMK2γ protein; made in house; host or cells: pET28A vector
Protocol: (§4) In the embodiment of the disclosure, the affinity between T2533 and human-derived CaMK2γ protein are detected. Specifically, a pET28A vector is firstly used to express and purify the human-derived full-length CaMK2γ protein. Subsequently, the affinity is determined by the surface plasmon resonance (SPR) method of Biacore™ using a CM5 chip amine-coupling.

[2] = tested on: Il17a, Il17f, Il22, Tnfa and Il23a; experiment: Quantitative PCR of proinflammatory genes in skin of IMQ-induced mice; type: in vivo, mouse; details: qPCR
Protocol: as §1, §2, §3
(§5) The skin lymphocytes of mice in the above groups are isolated and detected by flow cytometry (i.e., the detection of the proportion of IL17A^+ cells in dermal γδT subsets, the IL17A^+ cells are main effector cells mediated by the CaMK2γ pathway of psoriasis and can secrete a large number of IL-17 cytokines to aggravate psoriasis). […] Quantitative PCR is performed on known proinflammatory genes closely related to psoriasis, including Il17a, Il17f, Il22, Tnfa and Il23a.

[3] = tested on: IL17A^+ cells in dermal γδT subsets; experiment: Flow cytometry of skin lymphocytes of IMQ-induced mice; type: in vivo, mouse; details: 5 mg/kg; compared with IMQ-induced mice without T2533
Protocol: as §1
Seven-week-old C57/BL6 mice are bred and modeled in SPF-level environment. […]
In each group of 6 mice, the hair on the back of the mice is shaved to make the exposed skin reach 4 square centimeters. […] The skin of mice is scored every day, the mice are euthanized on Day 4, and the skin tissues are taken for a series of detection.
as §5

[4] = biological target: T2, mouse-derived CaMK2γ protein (Mus musculus, UniProt Q923T9); experiment: SPR (Biacore, CM5 chip amine-coupling) affinity to mouse-derived CaMK2γ protein; details: mouse-derived full-length CaMK2γ protein, read-out: binding constant
T2 construct: a pET28A vector is firstly used to express and purify the mouse-derived full-length CaMK2γ protein; made in house; host or cells: pET28A vector
Protocol: as §4, with “mouse-derived” for “human-derived”, “SPR” for “surface plasmon resonance (SPR)”

CaMK2γ = biological target: T3, CaMK2γ (Homo sapiens, UniProt Q13555); experiment: ADP-Glo Kinase Assay + CaMK2γ Kinase Enzyme System (Promega #V9201); type: biochemical; details: inhibitor final concentration 10 μM, compared with positive control, p<0.0001
T3 construct: purchased Promega #V9201
Protocol: The kinase activity (%) of 130 compounds screened above are detected by ADP-Glo™ Kinase Assay+CaMK2γ Kinase Enzyme System (Promega #V9201), and the evaluation standard is kinase activity (%).
The kinase activity (%) of each well is calculated by the above method.
In the embodiment of the disclosure, the inhibition of T2533 on CaMK2γ protein activity is detected by ADP-Glo™ Kinase Assay+CaMK2 γ Kinase Enzyme System (Promega #V9201), and the specific experimental steps and settings are as follows.
(1) well setting: 2 blank wells, 2 normal reaction wells, 2 dimethyl sulfoxide (DMSO) control wells, 40 inhibitor wells with 2 plex wells for each inhibitor and 20 inhibitors. There are 46 wells in total.
(2) preparation of a kinase reaction reagent: • (a) preparation of 200 […] 4× Kinase Buffer is as shown in Table 5 below. 175 μL of the 4× Kinase Buffer is required for a single experiment, that is, 2.5*20+62.5+62.5=175 μL. The rest is prepared into 1× Kinase Buffer and used as blank well.
• (b) preparation of 10 μL 5× inhibitor solution (final concentration is 10 micromoles per liter abbreviated μM), and 2.5 μL/well. Specifically, the inhibitor is 10 millimoles per liter abbreviated mM, diluted to 1 mM with DMSO in a ratio of 1:9; the preparation method of DMSO is the same as that of inhibitor, which is used as the DMSO control well, as shown in Table 6 below. […]

T3 sequence (Q13555 whole entry): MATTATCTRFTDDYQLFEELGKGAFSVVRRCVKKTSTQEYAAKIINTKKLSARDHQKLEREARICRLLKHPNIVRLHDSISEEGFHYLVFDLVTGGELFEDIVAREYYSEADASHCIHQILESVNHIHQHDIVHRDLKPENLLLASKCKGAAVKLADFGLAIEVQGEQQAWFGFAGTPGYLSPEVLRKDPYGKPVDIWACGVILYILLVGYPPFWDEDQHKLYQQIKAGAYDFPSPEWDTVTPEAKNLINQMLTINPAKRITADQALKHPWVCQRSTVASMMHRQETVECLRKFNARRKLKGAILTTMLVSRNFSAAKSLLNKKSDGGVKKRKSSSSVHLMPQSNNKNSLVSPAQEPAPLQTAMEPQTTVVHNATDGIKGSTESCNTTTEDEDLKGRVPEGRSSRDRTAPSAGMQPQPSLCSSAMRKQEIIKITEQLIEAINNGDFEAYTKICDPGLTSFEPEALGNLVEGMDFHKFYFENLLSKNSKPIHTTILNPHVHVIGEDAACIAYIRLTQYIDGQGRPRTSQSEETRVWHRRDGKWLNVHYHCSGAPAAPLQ
T2 sequence (Q923T9 whole entry): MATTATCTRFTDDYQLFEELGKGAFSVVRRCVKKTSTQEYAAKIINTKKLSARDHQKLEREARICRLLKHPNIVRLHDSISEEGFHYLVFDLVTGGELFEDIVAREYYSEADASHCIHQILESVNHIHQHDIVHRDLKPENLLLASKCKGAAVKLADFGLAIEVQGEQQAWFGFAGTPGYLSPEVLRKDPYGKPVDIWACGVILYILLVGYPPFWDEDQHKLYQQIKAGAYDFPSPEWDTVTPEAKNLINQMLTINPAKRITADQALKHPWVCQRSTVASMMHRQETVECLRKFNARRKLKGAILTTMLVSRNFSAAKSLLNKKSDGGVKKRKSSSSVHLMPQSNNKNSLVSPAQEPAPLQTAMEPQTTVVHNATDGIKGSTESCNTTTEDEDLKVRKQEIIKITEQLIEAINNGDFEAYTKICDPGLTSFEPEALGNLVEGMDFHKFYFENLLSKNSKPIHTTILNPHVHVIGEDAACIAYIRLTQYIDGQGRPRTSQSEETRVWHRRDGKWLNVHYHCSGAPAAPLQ
T1 sequence (Q13555 whole entry): as the sequence (Q13555 whole entry) above

SMILES: CN1CCC(=C2c3ccccc3CCn3c(C=O)cnc32)CC1 [T2533, Alcaftadine]
- inflammatory phenotype of IMQ-induced mice (IMQ-induced mice; 2.5 mg/kg): reduces the inflammatory phenotype
- inflammatory phenotype of IMQ-induced mice (IMQ-induced mice; 5 mg/kg): most significant
- inflammatory phenotype of IMQ-induced mice (IMQ-induced mice; 10 mg/kg): reduces the inflammatory phenotype
- Kd [1]: 25.4 µM
- expression of Il17a in the skin ([2]; 2.5 mg/kg): decrease significantly
- expression of Il17f in the skin ([2]; 2.5 mg/kg): decrease significantly
- expression of Il22 in the skin ([2]; 2.5 mg/kg): unchanged
- expression of Il23a in the skin ([2]; 2.5 mg/kg): unchanged
- expression of Tnfa in the skin ([2]; 2.5 mg/kg): unchanged
- expression of Il17a in the skin ([2]; 5 mg/kg): decrease significantly
- expression of Il17f in the skin ([2]; 5 mg/kg): decrease significantly
- expression of Il22 in the skin ([2]; 5 mg/kg): unchanged
- expression of Il23a in the skin ([2]; 5 mg/kg): decrease significantly
- expression of Tnfa in the skin ([2]; 5 mg/kg): decrease significantly
- proportion of IL-17A^+ cells in dermal γδT subsets [3]: significantly reduced
- Kd [4]: 68.4 µM
- inhibition effect on kinase activity (%) (CaMK2γ): effectively reduce the expression of CaMK2γ protein
- inhibition effect on kinase activity (%) (CaMK2γ; listed as compound I): most significant inhibition effect
